Assay results taken from ChEMBL document CHEMBL1201862, “PubChem BioAssay data set” (2004).
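Assay format: 96-well plates, 48-hour exposure. GI50: concentration for 50% inhibition of growth.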 Active and inactive are the calls of the source. Rule as the data show it: active = GI50 up to about 1.1 µM and inactive = higher.

Tests used:
Experiment in all cases: NCI anticancer screen, dose series, 48 h
786-0 = test system: 786-0
A498 = test system: A498
A549 = test system: A549
ACHN = test system: ACHN
CAKI-1 = test system: CAKI-1
CCRF-CEM = test system: CCRF-CEM
DU-145 = test system: DU-145
EKVX = test system: EKVX
HCC 2998 = test system: HCC 2998
HCT-116 = test system: HCT-116
HCT-15 = test system: HCT-15
HL-60 = test system: HL-60
HOP-62 = test system: HOP-62
HOP-92 = test system: HOP-92
HT-29 = test system: HT-29
Hs-578T = test system: Hs-578T
IGROV-1 = test system: IGROV-1
K562 = test system: K562
LOX IMVI = test system: LOX IMVI
M14 = test system: M14
MCF7 = test system: MCF7
MDA-MB-231 = test system: MDA-MB-231
MDA-MB-435 = test system: MDA-MB-435
MDA-N = test system: MDA-N
MOLT-4 = test system: MOLT-4
Malme-3M = test system: Malme-3M
NCI-H23 = test system: NCI-H23
NCI-H460 = test system: NCI-H460
NCI-H522 = test system: NCI-H522
NCI/ADR-RES = test system: NCI/ADR-RES
OVCAR-3 = test system: OVCAR-3
OVCAR-4 = test system: OVCAR-4
OVCAR-5 = test system: OVCAR-5
OVCAR-8 = test system: OVCAR-8
PC-3 = test system: PC-3
RPMI-8226 = test system: RPMI-8226
RXF 393 = test system: RXF 393
SF-268 = test system: SF-268
SF-295 = test system: SF-295
SF-539 = test system: SF-539
SK-MEL-28 = test system: SK-MEL-28
SK-MEL-2 = test system: SK-MEL-2
SK-MEL-5 = test system: SK-MEL-5
SK-OV-3 = test system: SK-OV-3
SNB-19 = test system: SNB-19
SNB-75 = test system: SNB-75
SR = test system: SR
SW-620 = test system: SW-620
T47D = test system: T47D
TK-10 = test system: TK-10
U-251 = test system: U-251
UACC-257 = test system: UACC-257
UO-31 = test system: UO-31
COLO 205 = test system: COLO 205
KM12 = test system: KM12
NCI-H226 = test system: NCI-H226
SN12C = test system: SN12C
UACC-62 = test system: UACC-62

COC(=O)CCC(=O)c1ccc2c(c1)CCC2
GI50 (786-0): > 100 µM (inactive) | GI50 (A498): > 100 µM (inactive) | GI50 (A549): > 100 µM (inactive) | GI50 (ACHN): > 100 µM (inactive) | GI50 (CAKI-1): > 100 µM (inactive) | GI50 (CCRF-CEM): > 100 µM (inactive) | GI50 (DU-145): > 100 µM (inactive) | GI50 (EKVX): > 100 µM (inactive) | GI50 (HCC 2998): > 100 µM (inactive) | GI50 (HCT-116): > 100 µM (inactive) | GI50 (HCT-15): > 100 µM | GI50 (HL-60): > 100 µM (inactive) | GI50 (HOP-62): > 100 µM (inactive) | GI50 (HOP-92): > 100 µM (inactive) | GI50 (HT-29): > 100 µM (inactive) | GI50 (Hs-578T): > 100 µM (inactive) | GI50 (IGROV-1): > 100 µM (inactive) | GI50 (K562): > 100 µM (inactive) | GI50 (LOX IMVI): > 100 µM (inactive) | GI50 (M14): > 100 µM (inactive) | GI50 (MCF7): > 100 µM (inactive) | GI50 (MDA-MB-231): > 100 µM (inactive) | GI50 (MDA-MB-435): > 100 µM (inactive) | GI50 (MDA-N): > 100 µM (inactive) | GI50 (MOLT-4): > 100 µM (inactive) | GI50 (Malme-3M): > 100 µM (inactive) | GI50 (NCI-H23): > 100 µM (inactive) | GI50 (NCI-H460): > 100 µM (inactive) | GI50 (NCI-H522): > 100 µM (inactive) | GI50 (NCI/ADR-RES): > 100 µM (inactive) | GI50 (OVCAR-3): > 100 µM (inactive) | GI50 (OVCAR-4): > 100 µM (inactive) | GI50 (OVCAR-5): > 100 µM (inactive) | GI50 (OVCAR-8): > 100 µM (inactive) | GI50 (PC-3): > 100 µM (inactive) | GI50 (RPMI-8226): > 100 µM (inactive) | GI50 (RXF 393): > 100 µM (inactive) | GI50 (SF-268): > 100 µM (inactive) | GI50 (SF-295): > 100 µM (inactive) | GI50 (SF-539): > 100 µM (inactive) | GI50 (SK-MEL-28): > 100 µM (inactive) | GI50 (SK-MEL-2): > 100 µM (inactive) | GI50 (SK-MEL-5): > 100 µM (inactive) | GI50 (SK-OV-3): > 100 µM (inactive) | GI50 (SNB-19): > 100 µM (inactive) | GI50 (SNB-75): > 100 µM (inactive) | GI50 (SR): > 100 µM (inactive) | GI50 (SW-620): > 100 µM (inactive) | GI50 (T47D): > 100 µM (inactive) | GI50 (TK-10): > 100 µM (inactive) | GI50 (U-251): > 100 µM (inactive) | GI50 (UACC-257): > 100 µM (inactive) | GI50 (UO-31): > 100 µM (inactive)

CCOC(=O)N1c2ccccc2C(C)=CC(C)C1C (stereo not drawn)
GI50 (786-0): 20.6 µM (inactive) | GI50 (A498): 27 µM (inactive) | GI50 (A549): 22.6 µM (inactive) | GI50 (ACHN): 49.7 µM (inactive) | GI50 (CAKI-1): 16.2 µM (inactive) | GI50 (CCRF-CEM): 21.9 µM (inactive) | GI50 (COLO 205): 29.2 µM (inactive) | GI50 (DU-145): 38.3 µM (inactive) | GI50 (EKVX): 35.3 µM (inactive) | GI50 (HCC 2998): 45.6 µM (inactive) | GI50 (HCT-116): 6.73 µM (inactive) | GI50 (HCT-15): 5.36 µM | GI50 (HL-60): 27.2 µM (inactive) | GI50 (HOP-62): 37.6 µM (inactive) | GI50 (HT-29): 10.7 µM (inactive) | GI50 (Hs-578T): 35.6 µM (inactive) | GI50 (IGROV-1): 44 µM (inactive) | GI50 (K562): 18.9 µM (inactive) | GI50 (KM12): 9.82 µM (inactive) | GI50 (LOX IMVI): 7.53 µM (inactive) | GI50 (M14): 13.6 µM (inactive) | GI50 (MCF7): 10.3 µM (inactive) | GI50 (MDA-MB-231): 22.9 µM (inactive) | GI50 (MDA-MB-435): 3.37 µM (inactive) | GI50 (MDA-N): 1.32 µM (inactive) | GI50 (MOLT-4): 39.4 µM (inactive) | GI50 (Malme-3M): 33.9 µM (inactive) | GI50 (NCI-H226): 22.8 µM (inactive) | GI50 (NCI-H23): 22.8 µM (inactive) | GI50 (NCI-H460): 21.4 µM (inactive) | GI50 (NCI-H522): 18.7 µM (inactive) | GI50 (NCI/ADR-RES): 25.8 µM (inactive) | GI50 (OVCAR-3): 16.7 µM (inactive) | GI50 (OVCAR-4): 60.5 µM (inactive) | GI50 (OVCAR-5): 40.1 µM (inactive) | GI50 (OVCAR-8): 17.6 µM (inactive) | GI50 (PC-3): 55.8 µM (inactive) | GI50 (RPMI-8226): 56.8 µM (inactive) | GI50 (RXF 393): 11.3 µM (inactive) | GI50 (SF-268): 38 µM (inactive) | GI50 (SF-295): 23.9 µM (inactive) | GI50 (SF-539): 20.4 µM (inactive) | GI50 (SK-MEL-28): 35.9 µM (inactive) | GI50 (SK-MEL-2): 32.7 µM (inactive) | GI50 (SK-MEL-5): 12.5 µM (inactive) | GI50 (SK-OV-3): 22.4 µM (inactive) | GI50 (SN12C): 40.7 µM (inactive) | GI50 (SNB-19): 42.8 µM (inactive) | GI50 (SNB-75): 19.1 µM (inactive) | GI50 (SR): 5.09 µM (inactive) | GI50 (SW-620): 29.4 µM (inactive) | GI50 (T47D): 52.1 µM (inactive) | GI50 (TK-10): 4.55 µM (inactive) | GI50 (UACC-257): 12.7 µM (inactive) | GI50 (UACC-62): 32.6 µM (inactive) | GI50 (UO-31): 55.7 µM (inactive)

O=C1C(c2ccccc2)=[N+]([O-])c2ccccc21
GI50 (786-0): 17.7 µM (inactive) | GI50 (A498): 17.9 µM (inactive) | GI50 (A549): 19.9 µM (inactive) | GI50 (ACHN): 19.2 µM (inactive) | GI50 (CCRF-CEM): 4.83 µM (inactive) | GI50 (COLO 205): 16.2 µM (inactive) | GI50 (DU-145): 15.7 µM (inactive) | GI50 (EKVX): 15.1 µM (inactive) | GI50 (HCC 2998): 20 µM (inactive) | GI50 (HCT-116): 5.78 µM (inactive) | GI50 (HCT-15): 19.7 µM | GI50 (HL-60): 14.9 µM (inactive) | GI50 (HOP-62): 18.7 µM (inactive) | GI50 (HOP-92): 6.79 µM (inactive) | GI50 (HT-29): 20.2 µM (inactive) | GI50 (Hs-578T): 29.8 µM (inactive) | GI50 (K562): 3.15 µM (inactive) | GI50 (KM12): 19.8 µM (inactive) | GI50 (LOX IMVI): 3.35 µM (inactive) | GI50 (M14): 12.4 µM (inactive) | GI50 (MCF7): 1.64 µM (inactive) | GI50 (MDA-MB-231): 11.7 µM (inactive) | GI50 (MDA-MB-435): 3.37 µM (inactive) | GI50 (MDA-N): 3.29 µM (inactive) | GI50 (MOLT-4): 21.6 µM (inactive) | GI50 (Malme-3M): 17.4 µM (inactive) | GI50 (NCI-H226): 17.1 µM (inactive) | GI50 (NCI-H23): 19.4 µM (inactive) | GI50 (NCI-H460): 16.5 µM (inactive) | GI50 (NCI/ADR-RES): 17.7 µM (inactive) | GI50 (OVCAR-3): 13.6 µM (inactive) | GI50 (OVCAR-4): 4.04 µM (inactive) | GI50 (OVCAR-5): 22.4 µM (inactive) | GI50 (OVCAR-8): 18.6 µM (inactive) | GI50 (PC-3): 11.6 µM (inactive) | GI50 (RPMI-8226): 14.9 µM (inactive) | GI50 (SF-268): 14.1 µM (inactive) | GI50 (SF-295): 17.4 µM (inactive) | GI50 (SF-539): 18.8 µM (inactive) | GI50 (SK-MEL-28): 17.1 µM (inactive) | GI50 (SK-MEL-2): 14.7 µM (inactive) | GI50 (SK-MEL-5): 11.1 µM (inactive) | GI50 (SK-OV-3): 17.6 µM (inactive) | GI50 (SN12C): 17.3 µM (inactive) | GI50 (SNB-19): 19 µM (inactive) | GI50 (SNB-75): 17 µM (inactive) | GI50 (SR): 5.6 µM (inactive) | GI50 (SW-620): 5.83 µM (inactive) | GI50 (T47D): 1.97 µM (inactive) | GI50 (TK-10): 20 µM (inactive) | GI50 (U-251): 10.5 µM (inactive) | GI50 (UACC-257): 13.3 µM (inactive) | GI50 (UACC-62): 15.5 µM (inactive) | GI50 (UO-31): 16.2 µM (inactive)
